Measurements as given in patent US20220251109A1, “OXAAZAQUINAZOLINE-7(8H)-KETONE COMPOUND, PREPARATION METHOD THEREFOR AND PHARMACEUTICAL APPLICATION THEREOF” (GENFLEET THERAPEUTICS (SHANGHAI) INC., priority 2019, published 2022).
Like-named read-outs stand apart in the source and are kept apart here.

Tests used:
Assay type in all cases: cell-based, human
[1] = test system: p-ERK in MIA PaCa2 cells (Kras G12C mutation); test: Cell p-ERK detection experiment (HTRF) in MIA PaCa2 cells; settings: compound 2 hours
Description: MIA PaCa2 was a human pancreatic cancer cell line with Kras G12C mutation, cultured in 10% FBS+2.5% Horse serum DMEM medium. The cells in the logarithmic growth phase were taken, digested with enzyme EDTA, collected, counted and 2.5E4 cells were seeded in a 96-well cell culture plate, cultured overnight. DMSO was used to prepare 1000× compound 3.16-fold gradient concentration stock solution, and medium was used to dilute 200-fold to 5× compound stock solution. On the second day after cell seeding, 5× compound stock solution was added to each cell culture well, the final concentration was 1×, and DMSO content was 0.1%. DMSO was used as an experimental control (control). After the compound was added and cultured for two hours, the remaining medium was removed. 50 ul cell lysis buffer was added to each well, mixed and incubated for 30 minutes, then 16 ul of the mixture was transferred to a 96-well plate with a non-transparent white bottom, and 16 ul cell lysis buffer was added to blank wells. After the completion of the transfer, 4 ul p-ERK HTRF antibody mixture was added to each well, incubated for 4 hours and the fluorescence value was read. The compound inhibition rate IR (%)=(RLU control-RLU compound)/(RLU control-RLU blank)×100% was calculated, Prism 8 four-parameter method was used to fit the compound's gradient dilution concentration and the corresponding cell proliferation inhibition rate, and the IC50 value was calculate.

[2] = test system: NCI-H358 cells (Kras G12C mutation); test: Cell proliferation inhibition experiment, 3D model, CellTiter-Glo (NCI-H358); settings: NCI-H358, 3D sphere plate, 5 days, 2% FBS
Summary of the method: (§1)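 Luminescent ATP read-out (CellTiter-Glo) after 5-day compound treatment gave % inhibition relative to DMSO control and medium blank, fitted four-parameter for IC50. Spheroids were formed overnight in 2% FBS medium from 800 H358 or 400 A549 cells per well; dilutions were 3.16-fold, final DMSO 0.1%.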

[3] = test system: A549 cells (Kras G12S mutation); test: Cell proliferation inhibition experiment, 3D model, CellTiter-Glo (A549); settings: A549, 3D sphere plate, 5 days, 2% FBS
Summary of the method: as §1

[4] = test system: MIA PaCa-2 cells (Kras G12C mutation); test: Cell proliferation inhibition experiment, 3D model, CellTiter-Glo (MIA PaCa-2); settings: MIA PaCa-2, 3D sphere plate, 5 days, read-out: MIA-PaCa2 IC50
Description: MIA PaCa2 was a human pancreatic cancer cell line with Kras G12C mutation, cultured in 10% FBS+2.5% Horse serum DMEM medium; A549 was a human lung adenocarcinoma cell line with Kras G12S mutation, cultured in 10% FBS F-12K medium. The cells in the logarithmic growth phase were taken, digested with enzyme EDTA, collected, counted and 200 MIA PaCa-2 or 400 A549 cells were seeded in a 384-well sphere plate respectively, cultured overnight to establish a 3D cell model. DMSO was used to prepare 1000× compound 3.16-fold gradient concentration stock solution, and medium was used to dilute 100-fold to 10× compound stock solution. On the second day after cell seeding, 10× compound stock solution was added to each cell culture well, the final concentration was 1×, and DMSO content was 0.1%. DMSO was used as an experimental control (control), medium as the blank control (blank). After the compound and cells were added and cultured for 5 days, 30 μl CellTiter-Glo working solution was added to each well, mixed and incubated for 30 minutes. After 30 minutes at room temperature, 40 μl of the mixture was transferred to a 384-well plate with a non-transparent white bottom, the luminescence chemiluminescence value was read, and the cells proliferation inhibition rate IR (%)=(RLU control-RLU compound)/(RLU control-RLU blank)×100% was calculated, XLFit four-parameter method was used to fit the compound's gradient dilution concentration and the corresponding cell proliferation inhibition rate, and the IC50 value was calculate.

[5] = Homo sapiens, MIA PaCa-2, 120 h

| SMILES | IC50 [1] | IC50 [2] | IC50 [3] | IC50 [4] | IC50 [4, 5] | IC50 ([1]; Homo sapiens, MIA PaCa-2, 2 h) | IC50 ([2]; Homo sapiens, NCI-H358, 120 h) | IC50 ([3]; Homo sapiens, A549, 120 h) |
| --- | --- | --- | --- | --- | --- | --- | --- | --- |
| C=CC(=O)N1CCN2c3nc(=O)n(-c4c(C)ccnc4C(C)C)c4nc(-c5ccc(F)cc5F)c(Cl)c(c34)OC[C@@H]2C1 (single isomer, unassigned) [Compound Z49-1] | 64 nM | 6 nM | > 10000 nM | 10 nM | – | – | – | – |
| C=CC(=O)N1CCN2c3nc(=O)n(-c4c(C)ccnc4C(C)C)c4nc(-c5cccc(F)c5F)c(Cl)c(c34)OC[C@H]2C1 (single isomer, unassigned) [Compound Z77-2] | 8 nM | 1 nM | > 10000 nM | – | 2 nM | – | – | – |
| C=CC(=O)N1CCN2c3nc(=O)n(-c4c(C)ccnc4C(C)C)c4nc(-c5ccc(Cl)cc5F)c(Cl)c(c34)OC[C@@H]2C1 [Compound Z65] | – | – | – | – | 34 nM | 182 nM | 9 nM | > 10000 nM |
| C=CC(=O)N1CCN2c3nc(=O)n(-c4c(C)ccnc4C(C)C)c4nc(-c5c(O)cccc5F)c(F)c(c34)OC[C@H]2C1 (single isomer, unassigned) [Compound Z73-2] | 20 nM | 2 nM | > 10000 nM | 5 nM | – | – | – | – |
| C=CC(=O)N1CCN2c3nc(=O)n(-c4c(C)ccnc4C(C)C)c4nc(-c5ccc(F)cc5F)c(Cl)c(c34)OC[C@@H]2C1 [Compound Z49] | – | 12 nM | – | 22 nM | – | 128 nM | – | > 10000 nM |
| C=CC(=O)N1CCN2c3nc(=O)n(-c4c(C)ccnc4C(C)C)c4nc(-c5cccc(F)c5F)c(Cl)c(c34)OC[C@@H]2C1 (single isomer, unassigned) [Compound Z47-1] | 15 nM | 1 nM | > 10000 nM | 3 nM | – | – | – | – |
| C=CC(=O)N1CCN2c3nc(=O)n(-c4c(C)ccnc4C(C)C)c4nc(-c5ccccc5Cl)c(Cl)c(c34)OC[C@@H]2C1 [Compound Z58] | – | – | – | – | 3 nM | 14 nM | 1 nM | > 10000 nM |
| C=CC(=O)N1CCN2c3nc(=O)n(-c4c(C)ccnc4C(C)C)c4nc(-c5cccc(F)c5F)c(Cl)c(c34)OC[C@@H]2C1 (atropisomer, axis not shown) [Compound Z47-2] | 314 nM | 42 nM | > 10000 nM | – | – | – | – | – |
| C=CC(=O)N1CCN2c3nc(=O)n(-c4c(C)ccnc4C(C)C)c4nc(-c5c(O)cccc5F)c(F)c(c34)OC[C@H]2C1 (atropisomer, axis not shown) [Compound Z73-1] | 116 nM | 9 nM | > 10000 nM | – | – | – | – | – |
| C=CC(=O)N1CCN2c3nc(=O)n(-c4c(C)ccnc4C(C)C)c4nc(-c5c(O)cccc5F)c(Cl)c(c34)OC[C@@H]2C1 (single isomer, unassigned) [Compound Z24-1] | 53 nM | 16 nM | > 10000 nM | – | – | – | – | – |
| C=CC(=O)N1CCN2c3nc(=O)n(-c4c(C)ccnc4C(C)C)c4nc(-c5cccc(C(F)(F)F)c5F)c(Cl)c(c34)OC[C@@H]2C1 (single isomer, unassigned) [Compound Z57-2] | – | 3 nM | > 10000 nM | – | – | 27 nM | – | – |
| C=CC(=O)N1CCN2c3nc(=O)n(-c4c(C)ccnc4C(C)C)c4nc(-c5c(O)cccc5F)c(C=C)c(c34)OC[C@H]2C1 [Compound Z74] | – | – | – | – | – | 128 nM | 16 nM | > 10000 nM |
| C=CC(=O)N1CCN2c3nc(=O)n(-c4c(C)ccnc4C(C)C)c4nc(-c5c(F)cccc5F)c(Cl)c(c34)OC[C@H]2C1 [Compound Z80] | – | – | – | – | – | 19 nM | 3 nM | > 10000 nM |
| C=CC(=O)N1CCN2c3nc(=O)n(-c4c(C)ccnc4C(C)C)c4nc(-c5c(O)cccc5F)c(C)c(c34)OC[C@H]2C1 [Compound Z72] | – | – | – | – | – | 63 nM | 5 nM | > 10000 nM |
| C=CC(=O)N1CCN2c3nc(=O)n(-c4c(C)ccnc4C(C)C)c4nc(-c5ccc(F)cc5F)c(Cl)c(c34)OC[C@H]2C1 (single isomer, unassigned) [Compound Z76-1] | 109 nM | 40 nM | – | – | – | – | – | > 10000 nM |

Next, values leading:

| IC50 [1] | IC50 [2] | IC50 [3] | IC50 [4] | IC50 [4, 5] | IC50 ([1]; Homo sapiens, MIA PaCa-2, 2 h) | IC50 ([2]; Homo sapiens, NCI-H358, 120 h) | IC50 ([3]; Homo sapiens, A549, 120 h) | SMILES |
| --- | --- | --- | --- | --- | --- | --- | --- | --- |
| – | – | – | – | 1 nM | 7 nM | 1 nM | 26800 nM | C=CC(=O)N1CCN2c3nc(=O)n(-c4c(C(C)C)ncnc4C(C)C)c4nc(-c5c(O)cccc5F)c(Cl)c(c34)OC[C@H]2C1 [Compound Z97] |
| – | – | – | – | 2 nM | 9 nM | 1 nM | 12800 nM | C=CC(=O)N1CCN2c3nc(=O)n(-c4c(C5CC5)ncnc4C4CC4)c4nc(-c5ccccc5F)c(Cl)c(c34)OC[C@H]2C1 [Compound Z93] |
| 14 nM | 8 nM | – | – | 12 nM | – | – | 11300 nM | C=CC(=O)N1CCN2c3nc(=O)n(-c4nccnc4C(C)C)c4nc(-c5ccccc5F)c(Cl)c(c34)OC[C@H]2C1 [Compound Z104-1] |
| – | – | – | – | – | 86 nM | 4 nM | > 10000 nM | C=CC(=O)N1CCN2c3nc(=O)n(-c4c(C)ncnc4C(C)C)c4nc(-c5c(O)cccc5F)c(Cl)c(c34)OC[C@H]2C1 [Compound Z88] |
| 195 nM | 59 nM | – | – | – | – | – | > 10000 nM | C=CC(=O)N1CCN2c3nc(=O)n(-c4c(C)ncnc4C(C)C)c4nc(-c5cccc(F)c5F)c(Cl)c(c34)OC[C@H]2C1 (single isomer, unassigned) [Compound Z96-1] |
| 27 nM | 3 nM | > 10000 nM | – | – | – | – | – | C=CC(=O)N1CCN2c3nc(=O)n(-c4c(C)ncnc4C(C)C)c4nc(-c5c(O)cccc5F)c(Cl)c(c34)OC[C@H]2C1 (single isomer, unassigned) [Compound Z88-2] |
| 395 nM | 38 nM | – | – | – | – | – | > 30000 nM | C=CC(=O)N1CCN2c3nc(=O)n(-c4nccnc4C(C)C)c4nc(-c5c(O)cccc5F)c(Cl)c(c34)OC[C@H]2C1 (atropisomer, axis not shown) [Compound Z105-1] |
| 158 nM | 47 nM | – | – | – | – | – | 10200 nM | C=CC(=O)N1CCN2c3nc(=O)n(-c4c(C)ccnc4C(C)C)c4nc(-c5ccccc5F)c(Cl)c(c34)OC[C@H]2C1 (single isomer, unassigned) [Compound Z87-1] |
| 23 nM | 2 nM | 8300 nM | – | – | – | – | – | C=CC(=O)N1CCN2c3nc(=O)n(-c4c(C)ccnc4C(C)C)c4nc(-c5cccc(Cl)c5F)c(Cl)c(c34)OC[C@@H]2C1 (single isomer, unassigned) [Compound Z82-2] |
| 226 nM | 19 nM | – | – | – | – | – | > 30000 nM | C=CC(=O)N1CCN2c3nc(=O)n(-c4nccnc4C(C)C)c4nc(-c5c(O)cccc5F)c(F)c(c34)OC[C@H]2C1 (atropisomer, axis not shown) [Compound Z107-1] |
| 93 nM | 30 nM | 10100 nM | – | – | – | – | – | C=CC(=O)N1CCN2c3nc(=O)n(-c4c(C)ccnc4C(C)C)c4nc(-c5cccc(Cl)c5F)c(Cl)c(c34)OC[C@H]2C1 (atropisomer, axis not shown) [Compound Z91-1] |
| 9 nM | 1 nM | – | – | – | – | – | 12100 nM | C=CC(=O)N1CCN2c3nc(=O)n(-c4c(C)ccnc4C(C)C)c4nc(-c5c(F)cccc5OC)c(Cl)c(c34)OC[C@H]2C1 (single isomer, unassigned) [Compound Z83-1] |
| – | – | – | – | – | 166 nM | 19 nM | > 30000 nM | C=CC(=O)N1CCN2c3nc(=O)n(-c4c(C)ccnc4C(C)C)c4nc(-c5cc(O)ccc5F)c(Cl)c(c34)OC[C@H]2C1 [Compound Z118] |
